# Entries after “also recorded” stand apart in the source; their conditions may differ.
# Experiments:
# [1] = system: MDA-MB-231 breast cancer tumors; conditions: literature; cited from earlier work
# [2] = SubQ; YB-16 3, 6 mg/kg; capsaicin 2 mg/kg
# [3] = background; cited from earlier work
# [4] = Rodent eye wiping assay (pungency)
# Aqueous solubility = format: physicochemical
# Protocol: Chemical analysis and solubility tests were performed blind to the identity of the samples. Intermediates and final analogs were analyzed by NMR (JEOL 400 MHz NMR) and HPLC/MS (Waters Acquity UPLC with SQD Mass Spec) to confirm structures and purity. Final compounds were purified to achieve >95% purity based on HPLC analysis.
# [5] = system: Src protein activation in OVCAR-8 cells; assay: Cancer cell immunocytochemistry assay, Phospho-Src (Y416), OVCAR-8; format: cell-based, human; conditions: YB-1 15 μM, capsaicin 50 μM, 1-6 h
# Protocol: (§1) Human cancer cells (15,000 cells/well) in 96 well half area microplate (Cat #3882, Corning) were incubated overnight at 37° C., then compounds or DMSO control were added to the cell culture and incubated at 37° C. for 1-6 h. The cells were sequentially fixed with 4% formalin, permeabilized with 0.5% Triton X-100, blocked with 5% BSA in PBS, incubated with Human Phospho-Src (Y416) Antibody (Cat #MAB2685, R&D Systems) at rt for 2 h, incubated with the secondary antibody Goat Ant-Rabbit IgG H&L (Alexa Fluor 488) (Cat #ab150077, abeam) for 45 min, and incubated with DAPI (Cat #D9542, Sigma-Aldrich) for 5 min. Finally, the cells were washed and covered with PBS. The cell images were visualized on an inverted fluorescence microscope (Leica DMIL Fluorescent Inverted Microscope with Digital Camera, Leica Microsystems). Pictures were taken [FIGS. 14A-C. Green: Human Phospho-Src (Y416), the activated form of the Src protein; Blue: DAPI (stain nucleus of cell)]. The fluorescence intensity values from 5 random cells were averaged, subtracted by the background value (area between cells) and the blank value [the blank control without the Human Phospho-Src (Y416) Antibody], then plotted as percentage against the DMSO control to indicate the effects of compound treatment on the cellular Src kinase phosphorylation levels in the cancer cells (FIGS. 15A-D).
# TRPV1 = target: T1, TRPV1 (Mus musculus, UniProt Q704Y3); assay: Ca2+ imaging of primary mouse dorsal root ganglion (DRG) neurons, TRPV1 desensitization; format: cell-based; conditions: then capsaicin 0.5 μM
# T1 construct: DRG was isolated from male and female mice expressing GCaMP6f in neurons; endogenous in cells; host or cells: dissociated primary DRG neurons from GCaMP6f-expressing mice
# NCI-H460 cell invasion = assay: Cancer cell invasion assay, NCI-H460; format: cell-based, human; conditions: 24 h
# Protocol: A cancer cell invasion assay was developed based on literature protocols (Methods 2005, 37, 208; EMBO J 2002, 21, 6289; Cellular Signalling 2012, 24, 1276.). Membrane matrix gel (Cat #A1413201, ThermoFisher) was diluted in ice-cold, serum-free RPMI 1640 Medium (Cat #31800022, ThermoFisher) at a concentration of 0.5-0.6 mg/mL. Then it was added to the upper compartment (100 μL per cup) of millicell inserts (Cat #PI8P01250, ThermoFisher) placed in a 24-well plate (Part no. 229123, Celltreat). The plate was incubated at 37° C. for 2 h to allow the liquid gel to solidify. RPMI 1640 Medium supplemented with 10% FBS (300 μL) was added to the well of the plate (lower compartment) as attractant, then DMSO or compounds were added. Human cancer cells (1×10^5 cells in 200 μL of RPMI 1640 Medium) were added to the upper compartment of the insert, then DMSO or compounds were added. After the plate was incubated at 37° C. for 24 h, the cells were fixed on the lower side of the insert membrane with 4% formaldehyde and stained with 1% crystal violet (Part no. IS12146, Innovating Science). The invaded cells on the lower side of the filter were counted under an inverted microscope equipped with either a 4× or a 10× objective (FIG. 11). The cell numbers from 5 random views were averaged and plotted as percentage against the DMSO control (FIG. 12A).
# MDA-MB-231 = assay: Human cancer cell growth inhibition assay (ATP assay), MDA-MB-231; format: cell-based; conditions: Homo sapiens, MDA-MB-231, 96 h; 4 days; Means±SEM from three independent experiments; read-out: MDA-MB-231, IC50
# [6] = system: Src protein activation in MDA-MB-231 cells; assay: Cancer cell immunocytochemistry assay, Phospho-Src (Y416), MDA-MB-231; format: cell-based, human; conditions: YB-1 15 μM, capsaicin 50 μM, 1-6 h
# Protocol: as §1
# OVCAR-8 = assay: Human cancer cell growth inhibition assay (ATP assay), OVCAR-8; format: cell-based; conditions: Homo sapiens, OVCAR-8, 96 h; 4 days; Means±SEM from three independent experiments; read-out: OVCAR-8, IC50
# [7] = first treatment capsaicin 0.5 μM, YB-11 0.5 μM or YB-16 1.0 μM, paired t-test
# T1 sequence (Q704Y3 whole entry): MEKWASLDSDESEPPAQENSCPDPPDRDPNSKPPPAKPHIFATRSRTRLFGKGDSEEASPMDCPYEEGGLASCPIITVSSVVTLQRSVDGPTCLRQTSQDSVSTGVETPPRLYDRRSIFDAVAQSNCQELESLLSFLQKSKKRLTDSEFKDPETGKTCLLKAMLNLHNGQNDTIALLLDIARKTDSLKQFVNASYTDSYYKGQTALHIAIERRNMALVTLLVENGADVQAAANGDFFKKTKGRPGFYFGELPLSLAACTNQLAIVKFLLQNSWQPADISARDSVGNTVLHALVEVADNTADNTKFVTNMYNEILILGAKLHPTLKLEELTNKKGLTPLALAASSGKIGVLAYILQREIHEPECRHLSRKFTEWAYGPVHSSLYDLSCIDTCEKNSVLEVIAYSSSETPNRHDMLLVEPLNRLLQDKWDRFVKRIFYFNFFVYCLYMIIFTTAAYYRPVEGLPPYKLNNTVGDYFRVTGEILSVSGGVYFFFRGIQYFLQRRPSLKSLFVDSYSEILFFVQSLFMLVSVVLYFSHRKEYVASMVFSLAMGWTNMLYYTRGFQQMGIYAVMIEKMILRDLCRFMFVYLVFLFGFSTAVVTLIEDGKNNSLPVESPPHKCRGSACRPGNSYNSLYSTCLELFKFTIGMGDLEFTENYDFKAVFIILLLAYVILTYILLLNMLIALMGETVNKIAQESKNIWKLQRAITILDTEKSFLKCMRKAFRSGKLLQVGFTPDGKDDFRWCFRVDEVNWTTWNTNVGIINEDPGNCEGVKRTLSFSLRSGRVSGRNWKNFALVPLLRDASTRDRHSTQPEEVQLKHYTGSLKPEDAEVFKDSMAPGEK
compound,measurement,setting,value
"COc1cc(CNC(=O)CCCC/C=C/C(C)C)ccc1O [Capsaicin, trans-8-methyl-N-vanillyl-6-nonenamide, reference compound]",decrease of tumor size,[1],50%
same,effect on hot-plate reaction,[2],reduced hotplate sensitivity compared to vehicle
same,solubility in water,[3],13 µg/mL
same,MPP,[4]; Moderate Pain-Producing Potency concentration: dose producing 10 normalized eye wipes,0.041 mg/mL
same,Pungency RPP,[4]; Relative Pain-Producing Potency with Capsaicin set to 100,100
same,Pungency RPP,"[4]; Table 3 comparison, Capsaicin set to 100",100
same,solubility,Aqueous solubility,13 µg/mL
same,cellular Src kinase phosphorylation levels,[5],time-dependently reduced the cellular Src kinase phosphorylation levels
same,TRPV1-sensitive neurons showing desensitization,TRPV1; first treatment 0.5 μM,96%
same,area under the curve of the Ca2+ signal of the second (capsaicin) application,TRPV1; [7],statistically significant reduction; also recorded: significantly reduced
same,max Ca2+ signal of the second (capsaicin) application,TRPV1; [7],statistically significant reduction; also recorded: significantly reduced
same,inhibition of NCI-H460 cell invasion,NCI-H460 cell invasion,dose-dependently inhibited
same,IC50,MDA-MB-231,387 ± 120 µM
same,cellular Src kinase phosphorylation levels,[6],time-dependently reduced the cellular Src kinase phosphorylation levels
same,IC50,OVCAR-8,234 ± 31 µM
